Values of other authors as cited in patent publication US20080268066A1, “Synergistic Formulation for Preventing and/or Treating Diabetes” (priority 2005, published 2008).
Where a name gives a salt, the structure may show the parent alone. Read-outs that look alike come from different tables or passages of the source.

Key:
[1] = tested on: acute medicamentous kidney lesion
[2] = tested on: women of polycystic ovary syndrome (PCOS); conditions: daily dose of 1500 mg, 8 weeks later, about 20 women
prostate cancer = conditions: fraction
[3] = intravenous 600 mg, 5 times, after two weeks; control group 2 points
[4] = tested on: babies of mothers with diabetes / embryos in similar glucose concentration; conditions: 71%-88% without
homocysteine = conditions: human, in vivo
[5] = tested on: patients with retinal degeneration; conditions: among 16 patients; supplement every day for 6 months or more

N[C@@H](CCC(=O)N[C@@H](CS)C(=O)NCC(=O)O)C(=O)O [glutathione, L-glutamic acid-L-cysteine-glycine]
total effectiveness on blood urine ([1]; P<0.01): 89%
total effectiveness ([1]; P<0.05): 92%
total effectiveness on proteinuria ([1]; P<0.05): 57%

CN(C)C(=N)N=C(N)N [Metformin HCl]
women whose menstruation recovered to a normal level [2]: 86.7%

[Se] [selenium]
decrease of the occurrence of prostate cancer (prostate cancer): ½-⅓

O=C(O)CCCCC1CCSS1 (stereo not drawn) [alpha_lipoic acid]
decrease of the feeling of pain [3]: 6 points

Nc1nc2ncc(CNc3ccc(C(=O)N[C@@H](CCC(=O)O)C(=O)O)cc3)nc2c(=O)[nH]1 [folic acid]
probability of babies' aplasia ([4]; embryos in similar glucose concentration with folic acid): 5%
probability of babies' aplasia ([4]; pregnant animals fed with folic acid): 3%
decrease of the level of homocysteine (homocysteine): 25%

CC1=C[C@H](O)CC(C)(C)[C@H]1/C=C/C(C)=C/C=C/C(C)=C/C=C/C=C(C)/C=C/C=C(C)/C=C/C1=C(C)C[C@@H](O)CC1(C)C [lutein]
patients whose vision was apparently improved [5]: 12 patients

CC(C)=CCC/C(C)=C/C=C/C(C)=C/C=C/C(C)=C/C=C/C=C(C)/C=C/C=C(C)/C=C/C=C(\C)CCC=C(C)C [lycopene]
patients in whom cancer cells proliferation were stopped (prostatic carcinoma; human, in vivo): 44%
patients with size of the tumor not over 4 dm^3 (prostatic carcinoma; taken 3 weeks before the operation, 55% without): 85%
